The record followed here is patent US6596288B2, “Use of sterols as active ingredient in a cosmetic composition against adiposity” (Codif International SA, priority 2000, dated 2003).

Assay [1] relates to human adipocytes. In words: incorporation of [2-14C]-acetate into lipids (LIPOGENESIS) by isolated human adipocytes. Particulars: for % control (incorporation of acetate) / Average of cpm (incorporation of acetate) / cpm - t0 test (incorporation of acetate) / % inhibition (incorporation of acetate) / inhibition at 10 µM / inhibition at 100 µM / inhibition at 1000 µM: 4 h; for inhibition at 10 µM / inhibition at 100 µM / inhibition at 1000 µM: Homo sapiens, Adipocyte. Type of assay: cell-based. As to the method:
(§1) In these experiments, adipocytes were isolated from abdominal restorative surgeries sampled in women. The experiment took place the day of the sampling. Fragments of adipose tissues were incubated for 30 minutes at 37° C. in the presence of collagenase, then the isolated adipocytes were washed and taken up in medium MEM buffered with bicarbonate, in the presence of antibiotics (penicillin/streptomycin), glutamine (2 mM), and delipidated bovine serum albumin (0.5%).
The tests concerning the effect on lipogenesis were then conducted in the following manner.
Adipocytes (90 μl of ¼ diluted suspension) were incubated for 1 hour, either with a control medium (4 hours), with molecules known to inhibit the neosynthesis of fatty acids (EPA), as for example […], or with previously diluted extracts (added under 100 μl).
As to the sterols and to the lipidic extracts of plants or algae, they were diluted in mineral oil which has been verified to not inhibit incorporation or extraction of adipocyte lipids. Then, 10 μl of [2^14C]-acetate, 50 μCi/ml, were added, and the samples were either cultivated at 37° C. in the presence of 5% CO2 for 4 additional hours, or immediately frozen at −80° C. (control t0).
At the times indicated, the samples were frozen at −80° C. The lipids were then extracted according to the method of Bligh and Dyer (extraction methanol/chloroform/water), then dried under nitrogen. The radioactivity incorporated was then counted by liquid scintillation.

The test system of assay [2] is human adipocytes. The assay can be described thus: liberation of NEFA (non-esterified fatty acids) (LIPOLYSIS) by isolated human adipocytes. Type of assay: cell-based. Particulars: for % Control (NEFA liberation) / Average of the NEFA: 2 hours at 37° C. As to the method:
as §1
As to the tests concerning the effect on lipolysis, they were conducted in the following manner. Adipocytes (540 μl of suspension) were incubated for 2 hours in a water bath at 37° C., with agitation, in the presence of 60 μl of different sterols. The experiments were carried out in triplicate.
Then, the non-esterified fatty acids (AGNE) released by the adipocytes were determined in the sub-adipocyte media. The values obtained were treated by an analysis of variance (ANOVA) by means of the multiple comparison test of Dunnett. The values were considered as significant when the probability p was less than the threshold of significance 0.05.

Setting [3] is: 0.01 mM (10^−5 M), absence of insulin.
Setting [4] is: 0.01 mM (10^−5 M), presence of insulin (1 nM).
[5] abbreviates: 0.1 mM (10^−4 M), absence of insulin.
The mark [6] stands for this setting: 0.1 mM (10^−4 M), presence of insulin (1 nM).
Setting [7] is: 1 mM (10^−3 M), absence of insulin.
Where [8] appears, read: 1 mM (10^−3 M), presence of insulin (1 nM).

As to `CC(C)[C@H](C)CC[C@@H](C)[C@H]1CC[C@H]2[C@@H]3CC=C4C[C@@H](O)CC[C@]4(C)[C@H]3CC[C@]12C` [Campesterol, campesterol], the “incorporation of acetate by isolated human adipocytes (conclusion)” value with human adipocytes [1] is given as “inhibit the incorporation of acetate”. The “% control (incorporation of acetate)” value was 92% in the assay on human adipocytes [1] (setting [3]); 101% with human adipocytes [1] (setting [4]); 90% in the assay on human adipocytes [1] (setting [5]); 85% in the assay with human adipocytes [1] (setting [6]); 74% in the assay on human adipocytes [1] (setting [7]); 48% with human adipocytes [1] (setting [8]). Besides, the “Average of cpm (incorporation of acetate)” value (“Average of cpm” for short) with human adipocytes [1] (setting [3]) is listed as 191817 cpm; in the assay on human adipocytes [1] (setting [4]) it was 243051 cpm; in the assay on human adipocytes [1] (setting [5]), 188278 cpm; in the assay on human adipocytes [1] (setting [6]), 206655 cpm; in the assay with human adipocytes [1] (setting [7]) it was 156448 cpm; in the assay with human adipocytes [1] (setting [8]), 119960 cpm. In addition, the “cpm - t0 test (incorporation of acetate)” value with human adipocytes [1] (setting [3]) came out at 185352 cpm; in the assay with human adipocytes [1] (setting [4]) it was 236586 cpm; in the assay on human adipocytes [1] (setting [5]), 181813 cpm; in the assay on human adipocytes [1] (setting [6]) it was 200190 cpm; with human adipocytes [1] (setting [7]) it was 149983 cpm; in the assay with human adipocytes [1] (setting [8]), 113495 cpm. Moreover, the “% inhibition (incorporation of acetate)” value in the assay on human adipocytes [1] (setting [4]) is given as “no significant effect”. Further, the inhibition at 10 µM with human adipocytes [1] (setting [3]) worked out at 8%; in the assay on human adipocytes [1] (setting [4]), 0%. Further, the inhibition at 100 µM came out at 10% in the assay with human adipocytes [1] (setting [5]) and 15% in the assay on human adipocytes [1] (setting [6]). For the same compound, the inhibition at 1000 µM worked out at 26% with human adipocytes [1] (setting [7]) and 52% in the assay on human adipocytes [1] (setting [8]). In addition, the “% Control (NEFA liberation)” value in the assay with human adipocytes [2] (10^−2 M) was 118%; in the assay with human adipocytes [2] (10^−3 M (1 mM)), 98%; with human adipocytes [2] (10^−4 M), 109%; in the assay with human adipocytes [2] (10^−5 M) it was 99%; with human adipocytes [2] (10^−6 M (1 μM)) it was 117%. In addition, the “Average of the NEFA” value stood at 167 µM in the assay with human adipocytes [2] (10^−2 M); 138 µM in the assay on human adipocytes [2] (10^−3 M (1 mM)); 155 µM in the assay with human adipocytes [2] (10^−4 M); 140 µM with human adipocytes [2] (10^−5 M); 166 µM in the assay with human adipocytes [2] (10^−6 M (1 μM)). The stimulation of lipolysis result in the assay on human adipocytes [2] (10^−6 M, 10^−5 M, 10^−4 M, 10^−3 M and 10^−2 M) is recorded as “did not stimulate lipolysis”.
Regarding `CC(C)NCC(O)c1ccc(O)c(O)c1` (stereo not shown) [Isoproterenol, isoproterenol, reference compound], in the assay on human adipocytes [2] (1 μM, p<0.05), the stimulation of lipolysis entry is given as “stimulated the lipolysis”. For the same compound, in the assay with human adipocytes [2] (10^−6 M (1 μM)), the “% Control (NEFA liberation)” value is given as 342% and the “Average of the NEFA” value turned out to be 483 µM.
Turning to insulin, the “increase of the incorporation of acetate” value with human adipocytes [1] (1 nM of insulin) is 16%; in the assay on human adipocytes [1] (100 nM of insulin, another donor), 120%.
With `Cn1c(=O)c2[nH]cnc2n(C)c1=O` [Theophylline, theophylline, reference compound], the stimulation of lipolysis result in the assay on human adipocytes [2] (1 nM, p<0.05) was “stimulated the lipolysis”. For the same compound, in the assay on human adipocytes [2] (10^−3 M (1 mM)), the “% Control (NEFA liberation)” value came out at 390% and the “Average of the NEFA” value is 551 µM.
Regarding `CC[C@H](/C=C/[C@@H](C)[C@H]1CC[C@H]2[C@@H]3CC=C4C[C@@H](O)CC[C@]4(C)[C@H]3CC[C@]12C)C(C)C` [Stigmasterol, stigmasterol], the “% control (incorporation of acetate)” value with human adipocytes [1] (setting [3]) was 95%; with human adipocytes [1] (setting [4]), 98%; in the assay on human adipocytes [1] (setting [5]), 96%; in the assay on human adipocytes [1] (setting [6]), 97%; in the assay with human adipocytes [1] (setting [7]), 101%; in the assay with human adipocytes [1] (setting [8]) it was 94%. For the same compound, the “% inhibition (incorporation of acetate)” value in the assay with human adipocytes [1] (setting [3]) is “weak and non-significant”; with human adipocytes [1] (setting [4]) it was 2%; in the assay on human adipocytes [1] (0.01 mM (10^−5 M), presence of insulin (1 nM), listed as stigmasterol), “less than 5%”; in the assay on human adipocytes [1] (setting [5]), “weak and non-significant”; in the assay on human adipocytes [1] (setting [6]), 3%; in the assay on human adipocytes [1] (setting [7]), “weak and non-significant”. Also, the “% inhibition (incorporation of acetate)” value with human adipocytes [1] (setting [8]) came to 6%. Also, the “Average of cpm” value in the assay on human adipocytes [1] (setting [3]) is given as 198442 cpm; with human adipocytes [1] (setting [4]), 235529 cpm; with human adipocytes [1] (setting [5]) it was 200467 cpm; in the assay with human adipocytes [1] (setting [6]), 234524 cpm; in the assay on human adipocytes [1] (setting [7]), 210055 cpm; in the assay with human adipocytes [1] (setting [8]), 227385 cpm. For the same compound, the “cpm - t0 test (incorporation of acetate)” value with human adipocytes [1] (setting [3]) is given as 191977 cpm; in the assay on human adipocytes [1] (setting [4]), 229064 cpm; in the assay with human adipocytes [1] (setting [5]) it was 194002 cpm; in the assay with human adipocytes [1] (setting [6]), 228059 cpm; with human adipocytes [1] (setting [7]) it was 203590 cpm; with human adipocytes [1] (setting [8]), 220920 cpm. This compound also came in with an inhibition at 10 µM in the assay on human adipocytes [1] (setting [3]) of 5%. The values for the inhibition at 100 µM in the assay with human adipocytes [1] (setting [5]) and in the assay on human adipocytes [1] (setting [6]) were 4% and less than 5%, respectively. Further, the inhibition at 1000 µM in the assay on human adipocytes [1] (setting [7]) is 0%; in the assay with human adipocytes [1] (setting [8]) it was less than 5%. In addition, in the assay on human adipocytes [2], the “liberation of fatty acids by isolated human adipocytes (conclusion)” value is on record as “increases the liberation of fatty acids”. For the same compound, the “% Control (NEFA liberation)” value is on record as 112% with human adipocytes [2] (10^−2 M); 126% with human adipocytes [2] (10^−3 M (1 mM)); 133% in the assay on human adipocytes [2] (10^−4 M); 128% in the assay on human adipocytes [2] (10^−5 M); 112% in the assay on human adipocytes [2] (10^−6 M (1 μM)). Further, the “Average of the NEFA” value was determined as 158 µM in the assay on human adipocytes [2] (10^−2 M); 178 µM in the assay on human adipocytes [2] (10^−3 M (1 mM)); 189 µM with human adipocytes [2] (10^−4 M); 180 µM in the assay on human adipocytes [2] (10^−5 M); 158 µM in the assay with human adipocytes [2] (10^−6 M (1 μM)). Besides, in the assay with human adipocytes [2] (10^−6 M and 10^−2 M), the “effect on liberation of NEFA” value is recorded as “did not show significant effect”.
On to `CC/C=C\C/C=C\C/C=C\C/C=C\C/C=C\CCCC(=O)O` [EPA, eicosapentanoic acid, reference compound], for which, in the assay with human adipocytes [1] (setting [5]), the “% control (incorporation of acetate)” value was found to be 18%, the “% inhibition (incorporation of acetate)” value is on record as 82%, the “Average of cpm” value is recorded as 43253 cpm and the “cpm - t0 test (incorporation of acetate)” value was 36788 cpm. For the same compound, in the assay on human adipocytes [1] (setting [6]), the “% control (incorporation of acetate)” value amounted to 38%, the “% inhibition (incorporation of acetate)” value came to 62%, the “Average of cpm” value is given as 96244 cpm and the “cpm - t0 test (incorporation of acetate)” value was determined as 89779 cpm. Besides, in the assay on human adipocytes [1] (setting [7]), the “% control (incorporation of acetate)” value is reported as 3%, the “% inhibition (incorporation of acetate)” value is listed as 97%, the “Average of cpm” value is reported as 1287 cpm and the “cpm - t0 test (incorporation of acetate)” value came out at 6373 cpm. Further, in the assay on human adipocytes [1] (setting [8]), the “% control (incorporation of acetate)” value is 3%, the “% inhibition (incorporation of acetate)” value was found to be 97%, the “Average of cpm” value is 13384 cpm and the “cpm - t0 test (incorporation of acetate)” value worked out at 6919 cpm.
